Test results from paper PMC9092651, “Improving Thermostability and Catalytic Activity of Glycosyltransferase From Panax ginseng by Semi-Rational Design for Rebaudioside D Synthesis” (Frontiers in Bioengineering and Biotechnology, 2022).

Biological target: T1, EUGT11 (Oryza sativa, UniProt Q0DPB7)
T1 construct: gene Os03g0702000
T1 sequence (Q0DPB7 1-462): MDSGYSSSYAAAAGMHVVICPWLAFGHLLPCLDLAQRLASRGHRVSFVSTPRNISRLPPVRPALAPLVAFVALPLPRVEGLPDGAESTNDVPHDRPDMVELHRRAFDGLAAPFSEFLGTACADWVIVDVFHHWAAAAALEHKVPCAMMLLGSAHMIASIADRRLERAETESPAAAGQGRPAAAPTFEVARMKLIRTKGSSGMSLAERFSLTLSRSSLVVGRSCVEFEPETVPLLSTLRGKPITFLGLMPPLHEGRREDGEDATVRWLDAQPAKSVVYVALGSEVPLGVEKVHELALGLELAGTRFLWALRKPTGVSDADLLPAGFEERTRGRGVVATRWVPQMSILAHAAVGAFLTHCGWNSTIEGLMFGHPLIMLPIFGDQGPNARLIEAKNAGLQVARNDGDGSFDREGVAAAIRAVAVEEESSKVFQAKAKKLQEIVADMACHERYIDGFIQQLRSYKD
Test: cell-free synthesised enzyme, HPLC product detection
Settings: 2 mM UDP-glucose, 2 mM Reb A, 50 mM PBS pH 8.0, 35 °C, 12 h; positive control

Q: With `C=C1C[C@@]23CC[C@H]4[C@@](C)(CCC[C@@]4(C)C(=O)O[C@@H]4O[C@H](CO)[C@@H](O)[C@H](O)[C@H]4O)[C@@H]2CC[C@]1(O[C@@H]1O[C@H](CO)[C@@H](O)[C@H](O[C@@H]2O[C@H](CO)[C@@H](O)[C@H](O)[C@H]2O)[C@H]1O[C@@H]1O[C@H](CO)[C@@H](O)[C@H](O)[C@H]1O)C3` [Reb A] as the compound, how does the “cell-free synthesised enzyme, HPLC product detection” value read?
A: Its value is “the glycosylated product of Reb A catalyzed by EUGT11 had the same HPLC retention time”.
